One data set deals with rat. Description: Acute oral toxicity / LD50 in the rat. As for the experimental part:
(§1) LD50 were determined in the mouse and the rat. The substance was administered to the animals by the oral route in a single dose. The behaviour of the animals was observed during the six days which followed. The statistical calculations were done by the method of Miller L. C. Tainter M. L. (Proc. Soc. Exp. Biol. Med., 1944 57 261/264/264).

Another data set relates to mouse. Description: Acute oral toxicity / LD50 in the mouse. Conditions: for Mortality: in vivo, po. As for the experimental part:
as §1

A further data set relates to Experimental pleurisy. The data set is described as follows: Experimental pleurisy in the rat (terebenthine essence). Conditions: 6 hours. It counts as in vivo, Wistar rats. As for the experimental part: The injection of terebenthine essence (0.1 ml) into the bottom of the diaphragmatic sack of the rat causes in the hours which follow a vascular parietal reaction which leads to the formation of an inflammatory type pleurisy.
The average volume of the pleural exudate (taken up after opening the thoracic cage of the previously sacrificed animals) increases gradually in control animals to reach 6 to 7 ml towards the sixth hour, this volume remaining constant to the forty-eighth hour. The exudate is accompanied by the diapedesis of the formed elements of the blood and by the increase in the mobile cells of the conjunctive tissue. Five days after the injection of the irritant agent, the cellular phase gives place to a tissular reaction which leads to the building of dense granulation tissue and to the production of adhesions between the lungs and the thoracic wall.
The action of an anti-inflammatory substance is manifested by a reduction in the volume of the pleural exudate measured for example 6 hours after the injection of the irritant agent and by a reduction in the intensity of the later tissular reaction.
Experiments in Wistar rats of 200 g divided into batches in the following manner were carried out:
1 control batch of 15 animals
batch of 60 animals (batch 3) also divided into subgroups, each of them comprising 20 animals which have been treated with the doses indicated in Table V
6 batches of 15 animals, respectively treated with anti-inflammatory substances for comparison identified above.
The substances to be tested were administered by mouth 30 minutes before the injection of the irritant substance. The doses of these known anti-inflammatories correspond to their normal experimental doses. The results indicated in the Table V correspond to the reductions expressed as % of the average volumes of pleural exudate taken up 6 hours after the irritant injection and observed in the treated animals relative to the average volumes measured in the controls.

A further data set concerns all the animals. The data set is described as follows: AD50 (active dose 50) and therapeutic index as shown by the above-mentioned tests. It counts as in vivo. Conditions: for ED50: read-out: AD50 (active dose 50).
The next data set is described as follows: in vivo. Conditions: rat, in vivo, po. As for the experimental part: as §1
For data set [1], the system named is Arthritis by Freund adjuvant. The data set is described as follows: Arthritis by Freund adjuvant. It counts as in vivo, rat. Conditions: 50 mg/kg per day. How it is done: The injection of 0.5 ml of Freund adjuvant (product sold by the Difco Company) into the plantar pad of the rear foot of a rat of 90 days, causes a chronic polyarthritis.
This injection causes an inflammation first localised in the injected foot, then generalised. The blocking of the articulations appears between the 10th and the 20th days.
In a series of rats thus treated there are selected, 10 days after the injection of the Freund adjuvant, 50 rats having complete blockage of the articulations.

The next data set can be described thus: Solubility. It counts as physicochemical.
For data set [2], the system named is transmission of painful stimuli. Description: Caroll and Lim test. In kind it is in vivo, rat. Conditions: 50 mg/kg by mouth. From the text:
This test (Arch. Int. Pharmacodyn., 1960, CXXV, 383-403) enables the study of the effect of analgesics on the transmission of painful stimuli, by means of electrodes placed on the tail of the rat and connected to a "stimulator" constituted by a source adapted to supply an alternating current of 60 Hz frequency at increasing voltages. The three voltages (thresholds S1, S2, S3) at which there are successively obtained:
Threshold S1 : characteristic retraction movement of the tail
Threshold S3 : a cry which continues after interrupting the stimulation.
The analgesic substances administered to a group of 15 rats have the effect of increasing the values of these thresholds. This is what have been observed with the substance according to the invention, administered by mouth at the dose of 50 mg/kg. The average increases, expressed as % with respect to the average corresponding thresholds observed in 15 animals of a control series, are indicated in Table VIII below.

Data set [3] in a line: Acute oral toxicity / LD50 in the mouse. The conditions noted are these: in vivo, po. How it is done: as §1
[4] abbreviates: relative to the values of the invention's substance.
[5] abbreviates: comparison batch, 50 mg/kg by mouth.
The mark [6] stands for this setting: comparison batch, 25 mg/kg by mouth.

Read-outs that look alike come from different tables or passages of the source.

`CCCCC1C(=O)N(c2ccccc2)N(c2ccccc2)C1=O` [Phenylbutazone, reference compound]: the “LD50 (in words)” value in the data set on rat (setting [4]) and with mouse (setting [4]) was “much lower than the above-indicated values” throughout. In the data set with Experimental pleurisy (comparison batch, 100 mg/kg by mouth), the “Reduction of average volume of pleural exudate” value (“Reduction” for short) was -49%. Besides, the ED50 in the data set with all the animals was ~100 mg/kg.
Turning to `O=C(O)c1cccnc1Nc1cccc(C(F)(F)F)c1` [Ac. niflumic, Niflumic acid, reference compound], in the data set on Experimental pleurisy (setting [5]), the “Reduction” value was -30%.
In the case of Clofezone [reference compound], the “Reduction” value in the data set with Experimental pleurisy (setting [5]) is reported as -37%.
On to `O=C(O)c1ccccc1Nc1cccc(C(F)(F)F)c1` [Ac. flufenamic, Flufenamic acid, reference compound], for which, in the data set with Experimental pleurisy (setting [6]), the “Reduction” value is on record as -32%.
For `CCCCC1C(=O)NN(c2ccnc3cc(Cl)ccc23)C1=O` (stereo not drawn) [1-(7'-chloro 4'-quinolinyl) 3,5-dioxo 4-n-butyl pyrazolidine], the Mortality result is listed as “no death” with rat (in vivo, po, 200 mg/kg); “no death” with rat (in vivo, po, 500 mg/kg); “no death” in the data set on rat (oral single dose, 1 g/kg); “no death” in the data set with rat (oral single dose, 2 g/kg); “no death” in the data set on mouse (200 mg/kg); “no death” with mouse (500 mg/kg). The LD50 at 144 h was > 4000 mg/kg in the data set “in vivo” and ~2000 mg/kg in [3]. In addition, the mortality at 144 h stood at 5% in “in vivo” (4000 mg/kg), 16% in [3] (1000 mg/kg), 50% in data set [3] (2000 mg/kg) and 100% in data set [3] (4000 mg/kg). The “Animals with at least partial deblocking of the articulations” value in [1] (after 5 days of treatment) is “at least 25%”; in data set [1] (after 10 days of treatment), ≥ 50%; in data set [1] (after 15 days of treatment) it was ≥ 65%. Further, the solubility in alcohol result in “Solubility” (alcohol) is reported as “soluble”. Further, the “solubility in solutions of potassium or of sodium carbonate” value in the data set “Solubility” (solutions of potassium or of sodium carbonate) is listed as “soluble”. The solubility in water entry in the data set “Solubility” (water) is “insoluble”. For the same compound, the “Average increase of threshold S1” value in data set [2] (11/2 hour), in data set [2] (30 minutes), in data set [2] (1 hour) and in data set [2] (2 hours) was 0 throughout. The “Reduction” value in the data set on Experimental pleurisy (Batch No. 1, 12.5 mg/kg by mouth) was -24%; with Experimental pleurisy (Batch No. 1, 25 mg/kg by mouth), -35%; in the data set on Experimental pleurisy (Batch No. 1, 50 mg/kg by mouth), -45%; with Experimental pleurisy (Batch No. 2, 12.5 mg/kg by mouth), -23%; with Experimental pleurisy (Batch No. 2, 25 mg/kg by mouth), -38%; in the data set on Experimental pleurisy (Batch No. 2, 50 mg/kg by mouth), -55%. Besides, the “Reduction” value in the data set with Experimental pleurisy (Batch No. 3, 12.5 mg/kg by mouth) is listed as -18%; in the data set with Experimental pleurisy (Batch No. 3, 25 mg/kg by mouth) it was -28%; in the data set with Experimental pleurisy (Batch No. 3, 50 mg/kg by mouth) it was -45%. For the same compound, the ED50 in the data set on all the animals (in all the animals, determined under similar conditions) is ~50 mg/kg. Further, the therapeutic index entry in the data set on all the animals (in vivo) was “notably higher than that of phenylbutazone”.
Turning to `Cc1cccc(Nc2ccccc2C(=O)O)c1C` [Ac. Mefenamic, Mefanamic acid, reference compound], in the data set on Experimental pleurisy (setting [6]), the “Reduction” value was -30%.
Turning to `COc1ccc2c(c1)c(CC(=O)O)c(C)n2C(=O)c1ccc(Cl)cc1` [Indomethacine, reference compound], the “Reduction” value in the data set with Experimental pleurisy (comparison batch, 5 mg/kg by mouth) is recorded as -33%.

In general, LD50 refers to the dose expected to kill half of the subjects tested. The term mortality denotes the share of the test organisms that died. A higher mortality goes with fewer survivors.

The values above are taken from patent publication US3996231A, “1-Quinolinyl-pyrazolidine derivatives” (Choay S.A., priority 1973, dated 1976).
